Data reported in paper PMC9848257, “Design and synthesis of novel rigid dibenzo[b,f]azepines through ring closure technique as promising anticancer candidates against leukaemia and acting as selective topoisomerase II inhibitors and DNA intercalators” (Journal of Enzyme Inhibition and Medicinal Chemistry, 2023).

What was measured:
Format in all cases: cell-based
OVCAR-4 = assay: NCI-60 one-dose screen, OVCAR-4; conditions: Homo sapiens; OVCAR-4, ovarian cancer; single dose 10 μM; read-out: Growth inhibition %
T-47D = assay: NCI-60 one-dose screen, T-47D; conditions: Homo sapiens, T47D, breast cancer, single dose 10 μM, read-out: Growth inhibition %
SR = assay: NCI-60 one-dose screen, SR; conditions: Homo sapiens, leukaemia, single dose 10 μM, read-out: Growth inhibition %
NCI-H522 = assay: NCI-60 one-dose screen, NCI-H522; conditions: Homo sapiens; NCI-H522, non-small cell lung cancer; single dose 10 μM; read-out: Growth inhibition %
HL-60(TB) = assay: NCI-60 one-dose screen, HL-60(TB); conditions: Homo sapiens, leukaemia, single dose 10 μM, read-out: Growth inhibition %
RPMI-8226 = assay: NCI-60 one-dose screen, RPMI-8226; conditions: Homo sapiens; RPMI-8226, leukaemia; single dose 10 μM; read-out: Growth inhibition %
KM12 = assay: NCI-60 one-dose screen, KM12; conditions: Homo sapiens; KM12, colon cancer; single dose 10 μM; read-out: Growth inhibition %
HOP-92 = assay: NCI-60 one-dose screen, HOP-92; conditions: Homo sapiens; HOP-92, non-small cell lung cancer; single dose 10 μM; read-out: Growth inhibition %
HCC-2998 = assay: NCI-60 one-dose screen, HCC-2998; conditions: Homo sapiens; HCC-2998, colon cancer; single dose 10 μM; read-out: Growth inhibition %
SK-MEL-5 = assay: NCI-60 one-dose screen, SK-MEL-5; conditions: Homo sapiens; SK-MEL-5, melanoma; single dose 10 μM; read-out: Growth inhibition %
OVCAR-8 = assay: NCI-60 one-dose screen, OVCAR-8; conditions: Homo sapiens; OVCAR-8, ovarian cancer; single dose 10 μM; read-out: Growth inhibition %
A549-ATCC = assay: NCI-60 one-dose screen, A549-ATCC; conditions: Homo sapiens, non-small cell lung cancer, single dose 10 μM, read-out: Growth inhibition %
MALME-3M = assay: NCI-60 one-dose screen, MALME-3M; conditions: Homo sapiens, melanoma, single dose 10 μM, read-out: Growth inhibition %
UACC-62 = assay: NCI-60 one-dose screen, UACC-62; conditions: Homo sapiens; UACC-62, melanoma; single dose 10 μM; read-out: Growth inhibition %
SNB-19 = assay: NCI-60 one-dose screen, SNB-19; conditions: Homo sapiens; SNB-19, CNS cancer; single dose 10 μM; read-out: Growth inhibition %
NCI-H23 = assay: NCI-60 one-dose screen, NCI-H23; conditions: Homo sapiens; NCI-H23, non-small cell lung cancer; single dose 10 μM; read-out: Growth inhibition %
ACHN = assay: NCI-60 one-dose screen, ACHN; conditions: Homo sapiens, renal cancer, single dose 10 μM, read-out: Growth inhibition %
COLO 205 = assay: NCI-60 one-dose screen, COLO 205; conditions: Homo sapiens; COLO 205, colon cancer; single dose 10 μM; read-out: Growth inhibition %
EKVX = assay: NCI-60 one-dose screen, EKVX; conditions: Homo sapiens, non-small cell lung cancer, single dose 10 μM, read-out: Growth inhibition %
OVCAR-3 = assay: NCI-60 one-dose screen, OVCAR-3; conditions: Homo sapiens; OVCAR-3, ovarian cancer; single dose 10 μM; read-out: Growth inhibition %
U251 = assay: NCI-60 one-dose screen, U251; conditions: Homo sapiens, U-251; U251, CNS cancer; single dose 10 μM; read-out: Growth inhibition %
HS 578 T = assay: NCI-60 one-dose screen, HS 578 T; conditions: Homo sapiens, breast cancer, single dose 10 μM, read-out: Growth inhibition %
HOP-62 = assay: NCI-60 one-dose screen, HOP-62; conditions: Homo sapiens; HOP-62, non-small cell lung cancer; single dose 10 μM; read-out: Growth inhibition %
UACC-257 = assay: NCI-60 one-dose screen, UACC-257; conditions: Homo sapiens; UACC-257, melanoma; single dose 10 μM; read-out: Growth inhibition %
DU-145 = assay: NCI-60 one-dose screen, DU-145; conditions: Homo sapiens; DU-145, prostate cancer; single dose 10 μM; read-out: Growth inhibition %
CCRF-CEM = assay: NCI-60 one-dose screen, CCRF-CEM; conditions: Homo sapiens, leukaemia, single dose 10 μM, read-out: Growth inhibition %
CAKI-1 = assay: NCI-60 one-dose screen, CAKI-1; conditions: Homo sapiens; CAKI-1, renal cancer; single dose 10 μM; read-out: Growth inhibition %
A498 = assay: NCI-60 one-dose screen, A498; conditions: Homo sapiens; A498, renal cancer; single dose 10 μM; read-out: Growth inhibition %
SN12C = assay: NCI-60 one-dose screen, SN12C; conditions: Homo sapiens, renal cancer, single dose 10 μM, read-out: Growth inhibition %
LOX IMVI = assay: NCI-60 one-dose screen, LOX IMVI; conditions: Homo sapiens, melanoma, single dose 10 μM, read-out: Growth inhibition %
NCI-H460 = assay: NCI-60 one-dose screen, NCI-H460; conditions: Homo sapiens; NCI-H460, non-small cell lung cancer; single dose 10 μM; read-out: Growth inhibition %
HT29 = assay: NCI-60 one-dose screen, HT29; conditions: Homo sapiens, HT-29; HT29, colon cancer; single dose 10 μM; read-out: Growth inhibition %
MDA-MB-435 = assay: NCI-60 one-dose screen, MDA-MB-435; conditions: Homo sapiens; MDA-MB-435, melanoma; single dose 10 μM; read-out: Growth inhibition %
HCT-15 = assay: NCI-60 one-dose screen, HCT-15; conditions: Homo sapiens; HCT-15, colon cancer; single dose 10 μM; read-out: Growth inhibition %
SF-268 = assay: NCI-60 one-dose screen, SF-268; conditions: Homo sapiens; SF-268, CNS cancer; single dose 10 μM; read-out: Growth inhibition %

## Brc1ccc(-c2nnc(N3c4ccccc4C=Cc4ccccc43)o2)cc1 [Compound 5b, 2-(4-Bromophenyl)-5-(5H-dibenzo[b,f]azepin-5-yl)-1,3,4-oxadiazole]
OVCAR-4
  inhibition at 10 µM: 19.6%
T-47D
  inhibition at 10 µM: 21.5%
SR
  inhibition at 10 µM: 73%
NCI-H522
  inhibition at 10 µM: 26.3%
HL-60(TB)
  inhibition at 10 µM: 34.6%
RPMI-8226
  inhibition at 10 µM: 17.5%
KM12
  inhibition at 10 µM: 21.4%
HOP-92
  inhibition at 10 µM: 33.5%
HCC-2998
  inhibition at 10 µM: < 10%
SK-MEL-5
  inhibition at 10 µM: 53.2%
OVCAR-8
  inhibition at 10 µM: 28.6%
A549-ATCC
  inhibition at 10 µM: 29.8%
MALME-3M
  inhibition at 10 µM: < 10%
UACC-62
  inhibition at 10 µM: 32.2%
SNB-19
  inhibition at 10 µM: 15.6%
NCI-H23
  inhibition at 10 µM: < 10%
ACHN
  inhibition at 10 µM: 24.8%
COLO 205
  inhibition at 10 µM: 15.4%
EKVX
  inhibition at 10 µM: 27.6%
OVCAR-3
  inhibition at 10 µM: < 10%
U251
  inhibition at 10 µM: 47%
HS 578 T
  inhibition at 10 µM: 14.4%
HOP-62
  inhibition at 10 µM: 22.7%
UACC-257
  inhibition at 10 µM: < 10%
DU-145
  inhibition at 10 µM: < 10%
CCRF-CEM
  inhibition at 10 µM: 37.3%
CAKI-1
  inhibition at 10 µM: 31.9%
A498
  inhibition at 10 µM: 13.4%
SN12C
  inhibition at 10 µM: 24.2%
LOX IMVI
  inhibition at 10 µM: 38.8%
NCI-H460
  inhibition at 10 µM: 63.5%
HT29
  inhibition at 10 µM: 18.4%
MDA-MB-435
  inhibition at 10 µM: < 10%
HCT-15
  inhibition at 10 µM: 66.5%
SF-268
  inhibition at 10 µM: 24.7%

## Clc1ccc(-c2nnc(N3c4ccccc4C=Cc4ccccc43)o2)cc1 [Compound 5c, 2-(4-Chlorophenyl)-5-(5H-dibenzo[b,f]azepin-5-yl)-1,3,4-oxadiazole]
OVCAR-4
  inhibition at 10 µM: 22.1%
T-47D
  inhibition at 10 µM: < 10%
SR
  inhibition at 10 µM: 67.5%
NCI-H522
  inhibition at 10 µM: 22.2%
HL-60(TB)
  inhibition at 10 µM: 38.1%
RPMI-8226
  inhibition at 10 µM: 19.2%
KM12
  inhibition at 10 µM: 18.5%
HOP-92
  inhibition at 10 µM: 24%
HCC-2998
  inhibition at 10 µM: < 10%
SK-MEL-5
  inhibition at 10 µM: 48%
OVCAR-8
  inhibition at 10 µM: 24%
A549-ATCC
  inhibition at 10 µM: 20.3%
MALME-3M
  inhibition at 10 µM: < 10%
UACC-62
  inhibition at 10 µM: 31.3%
SNB-19
  inhibition at 10 µM: 11.2%
NCI-H23
  inhibition at 10 µM: < 10%
ACHN
  inhibition at 10 µM: 15.5%
COLO 205
  inhibition at 10 µM: < 10%
EKVX
  inhibition at 10 µM: 20.8%
OVCAR-3
  inhibition at 10 µM: < 10%
U251
  inhibition at 10 µM: 42.6%
HS 578 T
  inhibition at 10 µM: < 10%
HOP-62
  inhibition at 10 µM: 15.4%
UACC-257
  inhibition at 10 µM: < 10%
DU-145
  inhibition at 10 µM: < 10%
CCRF-CEM
  inhibition at 10 µM: 30.4%
CAKI-1
  inhibition at 10 µM: 28.5%
A498
  inhibition at 10 µM: 12.9%
SN12C
  inhibition at 10 µM: 21.9%
LOX IMVI
  inhibition at 10 µM: 35.7%
NCI-H460
  inhibition at 10 µM: 57.3%
HT29
  inhibition at 10 µM: < 10%
MDA-MB-435
  inhibition at 10 µM: < 10%
HCT-15
  inhibition at 10 µM: 63.5%
SF-268
  inhibition at 10 µM: 24.7%
